Data on 28 compounds can be found in patent publication US11111238B2, “Coumarin derivatives, processes for their preparation and uses thereof for the treatment of cancer” (Lead Discovery Center GmbH, priority 2017, dated 2021).

A value given as a limit tells only on which side of the number the result lay.

As usually defined, the IC50 is the concentration at which inhibition is half-maximal. Read a high IC50 as lower potency.

Chain of mitochondrial RNA-polymerase (POLRMT) (Q8BKF1 42-1207): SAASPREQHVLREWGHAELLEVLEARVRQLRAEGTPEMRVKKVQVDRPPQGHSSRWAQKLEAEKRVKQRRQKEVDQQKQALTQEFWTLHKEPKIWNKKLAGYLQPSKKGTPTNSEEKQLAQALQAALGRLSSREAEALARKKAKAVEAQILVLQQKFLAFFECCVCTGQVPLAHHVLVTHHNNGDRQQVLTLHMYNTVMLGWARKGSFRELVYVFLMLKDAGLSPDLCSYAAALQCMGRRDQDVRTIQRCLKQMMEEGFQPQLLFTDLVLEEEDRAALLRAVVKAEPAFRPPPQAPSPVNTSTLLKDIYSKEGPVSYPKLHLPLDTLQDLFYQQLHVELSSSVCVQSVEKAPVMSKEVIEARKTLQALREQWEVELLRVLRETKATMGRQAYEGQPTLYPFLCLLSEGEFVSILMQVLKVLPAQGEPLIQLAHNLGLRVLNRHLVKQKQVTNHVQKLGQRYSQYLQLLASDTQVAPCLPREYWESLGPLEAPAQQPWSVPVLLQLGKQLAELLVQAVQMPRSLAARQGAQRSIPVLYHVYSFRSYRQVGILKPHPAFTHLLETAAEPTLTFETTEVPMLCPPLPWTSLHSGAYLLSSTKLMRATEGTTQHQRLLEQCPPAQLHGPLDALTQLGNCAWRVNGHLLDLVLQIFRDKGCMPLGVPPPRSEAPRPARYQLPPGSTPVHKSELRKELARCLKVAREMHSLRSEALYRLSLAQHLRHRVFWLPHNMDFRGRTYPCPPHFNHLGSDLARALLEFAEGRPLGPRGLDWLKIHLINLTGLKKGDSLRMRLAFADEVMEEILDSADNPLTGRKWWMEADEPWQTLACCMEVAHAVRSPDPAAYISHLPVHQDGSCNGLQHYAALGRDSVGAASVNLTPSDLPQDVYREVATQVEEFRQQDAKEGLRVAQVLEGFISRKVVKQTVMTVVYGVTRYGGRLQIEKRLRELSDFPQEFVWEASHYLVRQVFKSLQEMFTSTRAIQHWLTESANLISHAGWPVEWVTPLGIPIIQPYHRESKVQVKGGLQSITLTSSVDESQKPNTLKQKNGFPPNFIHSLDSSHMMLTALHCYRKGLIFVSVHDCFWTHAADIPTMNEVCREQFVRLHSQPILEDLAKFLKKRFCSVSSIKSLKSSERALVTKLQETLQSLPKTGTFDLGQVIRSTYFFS

For the assay, the target named is mitochondrial RNA-polymerase (POLRMT) (Mus musculus, UniProt Q8BKF1). The assay can be described thus: Homogeneous TR-FRET assay for mitochondrial transcription activity. The following applies: homogeneous TR-FRET assay according to Example 4; activity class. In kind it is biochemical. An excerpt:
The TR-FRET assay was basically conducted as described in WO2016/193,231A1, especially as described in example 1 (hereby incorporated by reference). With respect to the background of the mitochondrial transcription it is referred to Falkenberg et al. (2002) and Posse et al. (Posse et al., 2015). The method monitors the activity of mitochondrial RNA-polymerase via detection of the formation of its product, a 407 bp long RNA sequence. Detection of the product is facilitated by hybridization of two DNA-oligonucleotide probes to specific and adjacent sequences within the RNA product sequence. Upon annealing of the probes, two fluorophores that are coupled directly to an acceptor nucleotide probe (ATT0647, 5′) or introduced via a coupled streptavidin interacting with a biotinylated donor nucleotide probe on the other side (Europium cryptate, 3′) are brought into sufficient proximity to serve as a fluorescence-donor-acceptor pair as generally described in Walters and Namchuk (2003). Thus, a FRET signal at 665 nm is generated upon excitation at 340 nm.
Briefly, the protocol described here was applied for screening and activity determination in a low-volume 384-well microtiter plate with non-binding surface. For high-throughput application in the 1536-well microtiter plate format, volumes of the reagent mixes were adjusted, maintaining the volumetric ratio. Proteins POLRMT (NM_172551.3), TFAM (NM_009360.4) and TFB2 M (NM_008249.4) were diluted from their stocks to working concentrations of 150 nM, 1.8 μM and 330 nM respectively, in a dilution buffer containing 100 mM Tris-HCl pH 8.0, 200 mM NaCl, 10% (v/v) glycerole, 2 mM glutathione (GSH), 0.5 mM EDTA and 0.1 mg/mL BSA. Protein dilutions and template DNA, comprising a pUC18 plasmid encoding the mitochondrial light strand promoter, restriction linearized proximal to the promoter 3′-end (pUC-LSP), were mixed at the twofold final assay-concentration in a reaction buffer, containing 10 mM Tris-HCl pH 7.5, 10 mM MgCl2, 40 mM NaCl, 2 mM GSH, 0.01% (w/v) Tween-20 and 0.1 mg/mL BSA.
5 μL of this mix were dispensed, depending on the chosen microtiter plate format, using multi-channel pipettes or a Multidrop® dispenser (Thermo Fisher Scientific, Waltham Mass.) into the wells of a microtiter plate and incubated at room temperature (RT) for 10 min. Chemical compounds under scrutiny in the assay were applied using contact-free acoustic droplet-dispensing (Echo520® Labcyte Inc., Sunnyvale Calif.) from 10 mM compound stocks in 100% DMSO, to a final concentration of 10 μM or in serial dilution series of the required concentration range. Equal amounts of DMSO without any compound were added to positive control samples, followed by an incubation step at RT for 10 min.
The enzymatic reaction was started by the addition of 5 μL of a mix of […] in reaction buffer to a final concentration of 500 μM each. No nucleotide mix was added to negative control samples. The content of the wells was mixed using a VarioTeleshaker™ (Thermo Fisher Scientific, Waltham Mass.) at 1,500 rpm for 45 sec after which the microtiter plate was centrifuged at 500×g for 1 min. The samples were incubated for 2 h at RT with humidity control to avoid evaporation. The detection reagents were prepared in a buffer that was composed, such that the enzymatic reaction was terminated due to chelating of Mg-ions and increased ionic strength, containing 50 mM Tris-HCl pH 7.5, 700 mM NaCl, 20 mM EDTA, and 0.01% (w/v) Tween-20. Importantly Eu-cryptate-coupled streptavidin had to be pre-incubated with a 100-fold molar excess of a random sequence oligonucleotide for 10 min at RT in the dark to block unspecific binding of single stranded RNA to the protein. Subsequently, the blocked streptavidin(—Eu) was mixed with the DNA-probes on ice and kept away from light until use. […]
(TR-FRET usually uses a lanthanide donor and a delayed reading to cut background.)
In turn, `CC(Oc1ccc2c(-c3ccccc3Cl)cc(=O)oc2c1)C(=O)N1CCC[C@@H](C(=O)O)C1` (stereo partly drawn) [Compound 46, (3R)-1-[2-[4-(2-chlorophenyl)-2-oxo-chromen-7-yl]oxypropanoyl]piperidine-3-carboxylic acid] returned an IC50 of less than 20 nM.
With `CC(Oc1ccc2c(-c3ccccc3Cl)cc(=O)oc2c1)C(=O)N1CCCC(C#N)C1` (stereo not shown) [Compound 48, 1-[2-[4-(2-chlorophenyl)-2-oxo-chromen-7-yl]oxypropanoyl]piperidine-3-carbonitrile] the figure was less than 20 nM; with `CC(C)NC(=O)C(C)Oc1ccc2c(-c3cccc(F)c3Cl)cc(=O)oc2c1` (stereo not shown) [Compound 49, 2-[4-(2-chloro-3-fluoro-phenyl)-2-oxo-chromen-7-yl]oxy-N-isopropyl-propanamide], less than 20 nM; with `CC(Oc1ccc2c(-c3cccc(F)c3Cl)cc(=O)oc2c1)C(=O)N1CCC[C@H](C(=O)O)C1` (stereo partly drawn) [Compound 50, (3S)-1-[2-[4-(2-chloro-3-fluoro-phenyl)-2-oxo-chromen-7-yl]oxypropanoyl]piperidine-3-carboxylic acid], less than 20 nM.
Regarding `CNC(=O)C(C)Oc1ccc2c(-c3ccccc3Cl)cc(=O)oc2c1` (stereo not shown) [Compound 51, 2-[4-(2-chlorophenyl)-2-oxo-chromen-7-yl]oxy-N-methyl-propanamide], the IC50 was less than 20 nM.
For `CC(Oc1ccc2c(-c3cccc(F)c3Cl)cc(=O)oc2c1)C(=O)N1CCCC(S(N)(=O)=O)C1` (stereo not shown) [Compound 52, 1-[2-[4-(2-chloro-3-fluoro-phenyl)-2-oxo-chromen-7-yl]oxypropanoyl]piperidine-3-sulfonamide] the value was less than 20 nM; for `Cc1ccccc1-c1cc(=O)oc2cc(OC(C)C(=O)N3CCC[C@@H](C(=O)O)C3)ccc12` (stereo partly drawn) [Compound 53, (3R)-1-[2-[4-(o-tolyl)-2-oxo-chromen-7-yl]oxypropanoyl]piperidine-3-carboxylic acid], less than 20 nM.
Turning to `Cc1ccccc1-c1cc(=O)oc2cc(O[C@H](C)C(=O)OC(C)C)ccc12` [Compound 55, (R)-isopropyl 2-((2-oxo-4-(o-tolyl)-2H-chromen-7-yl)oxy)propanoate], the IC50 was less than 20 nM.
With `CCOC(=O)C(C)Oc1ccc2c(-c3cccc(F)c3Cl)cc(=O)oc2c1` (stereo not shown) [Compound 57, ethyl 2-[4-(2-chloro-3-fluoro-phenyl)-2-oxo-chromen-7-yl]oxypropanoate] the figure was 20 to 100 nM; with `CCOC(=O)C(C)Oc1ccc2c(-c3ccccc3C)cc(=O)oc2c1` (stereo not shown) [Compound 58, ethyl 2-[4-(o-tolyl)-2-oxo-chromen-7-yl]oxypropanoate], 20 to 100 nM.
With `Cc1ccccc1-c1cc(=O)oc2cc(OC(C)C(=O)N3CCC(CC(=O)O)CC3)ccc12` (stereo not shown) [Compound 60, 2-[1-[2-[4-(o-tolyl)-2-oxo-chromen-7-yl]oxypropanoyl]-4-piperidyl]acetic acid], the IC50 fell in the range of 20 to 100 nM.
For `CC(Oc1ccc2c(-c3cccc(F)c3Cl)cc(=O)oc2c1)C(=O)NC1CC1` (stereo not shown) [Compound 61, 2-[4-(2-chloro-3-fluoro-phenyl)-2-oxo-chromen-7-yl]oxy-N-cyclopropyl-propanamide] the value was 20 to 100 nM; for `Cc1ccccc1-c1cc(=O)oc2cc(OC(C)C(=O)N3CCC(S(N)(=O)=O)C3)ccc12` (stereo not shown) [Compound 63, 1-[2-[4-(o-tolyl)-2-oxo-chromen-7-yl]oxypropanoyl]pyrrolidine-3-sulfonamide], 20 to 100 nM.
For `CC(C)OC(=O)[C@@H](C)Oc1ccc2c(-c3ccccc3Cl)cc(=O)oc2c1` [Compound 64, isopropyl (2R)-2-[4-(2-chlorophenyl)-2-oxo-chromen-7-yl]oxypropanoate] the value was 20 to 100 nM; for `CC(C)NC(=O)C(C)Oc1ccc2c(-c3ccc(F)cc3Cl)cc(=O)oc2c1` (stereo not shown) [Compound 65, 2-[4-(2-chloro-4-fluoro-phenyl)-2-oxo-chromen-7-yl]oxy-N-isopropyl-propanamide], 20 to 100 nM; for `CC(Oc1ccc2c(-c3ccccc3Cl)cc(=O)oc2c1)C(=O)N1CCC[C@@H](C(=O)N(C)C)C1` (stereo partly drawn) [Compound 67, (3R)-1-[2-[4-(2-chlorophenyl)-2-oxo-chromen-7-yl]oxypropanoyl]-N,N-dimethyl-piperidine-3-carboxamide], 20 to 100 nM.
With `CCNC(=O)C(C)Oc1ccc2c(-c3cccc(F)c3Cl)cc(=O)oc2c1` (stereo not shown) [Compound 68, 2-[4-(2-chloro-3-fluoro-phenyl)-2-oxo-chromen-7-yl]oxy-N-ethyl-propanamide] the figure was 20 to 100 nM.
`Cc1ccccc1-c1cc(=O)oc2cc(OC(C)C(=O)N3CCC(F)(F)CC3)ccc12` (stereo not shown) [Compound 71, 7-[2-(4,4-difluoro-1-piperidyl)-1-methyl-2-oxo-ethoxy]-4-(o-tolyl)chromen-2-one] had an IC50 of 20 to 100 nM.
For `Cc1ccccc1-c1cc(=O)oc2cc(OC(C)C(=O)N3CCCC(CC(=O)O)C3)ccc12` (stereo not shown) [Compound 72, 2-[1-[2-[4-(o-tolyl)-2-oxo-chromen-7-yl]oxypropanoyl]-3-piperidyl]acetic acid] the value was 20 to 100 nM; for `Cc1ccccc1-c1cc(=O)oc2cc(OC(C)C(=O)N3CCCC(S(C)(=N)=O)C3)ccc12` (stereo not shown) [Compound 73, 7-[1-methyl-2-[3-(methylsulfonimidoyl)-1-piperidyl]-2-oxo-ethoxy]-4-(o-tolyl)chromen-2-one], 20 to 100 nM.
With `CC(Oc1ccc2c(-c3ccccc3Cl)cc(=O)oc2c1)C(=O)N1CCC(F)(F)CC1` (stereo not shown) [Compound 74, 4-(2-chlorophenyl)-7-[2-(4,4-difluoro-1-piperidyl)-1-methyl-2-oxo-ethoxy]chromen-2-one] the figure was 20 to 100 nM; with `CCOC(=O)C1(C)CCCN(C(=O)C(C)Oc2ccc3c(-c4ccccc4Cl)cc(=O)oc3c2)C1` (stereo not shown) [Compound 75, ethyl 1-[2-[4-(2-chlorophenyl)-2-oxo-chromen-7-yl]oxypropanoyl]-3-methyl-piperidine-3-carboxylate], 20 to 100 nM; with `CC(Oc1ccc2c(-c3ccccc3Cl)cc(=O)oc2c1)C(=O)N1CCC[C@H](C(=O)N(C)C)C1` (stereo partly drawn) [Compound 76, (3S)-1-[2-[4-(2-chlorophenyl)-2-oxo-chromen-7-yl]oxypropanoyl]-N,N-dimethyl-piperidine-3-carboxamide], 20 to 100 nM.
For `CC(Oc1ccc2c(-c3ccccc3Cl)cc(=O)oc2c1)C(=O)N1CCC(S(N)(=O)=O)C1` (stereo not shown) [Compound 77, 1-[2-[4-(2-chlorophenyl)-2-oxo-chromen-7-yl]oxypropanoyl]pyrrolidine-3-sulfonamide] the value was 20 to 100 nM; for `CCOC(=O)C(C)Oc1ccc2c(-c3ccc(F)cc3Cl)cc(=O)oc2c1` (stereo not shown) [Compound 82, Ethyl 2-((4-(2-chloro-4-fluorophenyl)-2-oxo-2H-chromen-7-yl)oxy)propanoate], 20 to 100 nM.
For `COC(=O)CC1CCN(C(=O)C(C)Oc2ccc3c(-c4ccccc4C)cc(=O)oc3c2)CC1` (stereo not shown) [Compound 83, methyl 2-[1-[2-[4-(o-tolyl)-2-oxo-chromen-7-yl]oxypropanoyl]-4-piperidyl]acetate], the IC50 is 20 to 100 nM.
Turning to `CCOC(=O)CC1CCCN(C(=O)C(C)Oc2ccc3c(-c4ccccc4C)cc(=O)oc3c2)C1` (stereo not shown) [Compound 87, ethyl 2-[1-[2-[4-(o-tolyl)-2-oxo-chromen-7-yl]oxypropanoyl]-3-piperidyl]acetate], the IC50 was 20 to 100 nM.
For `CCOC(=O)C1(C)CCCN(C(=O)C(C)Oc2ccc3c(-c4ccccc4C)cc(=O)oc3c2)C1` (stereo not shown) [Compound 88, ethyl 3-methyl-1-[2-[4-(o-tolyl)-2-oxo-chromen-7-yl]oxypropanoyl]piperidine-3-carboxylate] the value was 20 to 100 nM.
